{
  "source": "patent US6737383B1",
  "about": "“Herbicidal oxadiazolidines” (priority 1999, dated 2004)",
  "key": {"duck salad": {"tested_on": "duck salad", "test": "Test B flood test duck salad", "format": "in vivo, Heteranthera limosa", "details": "Pre-emergence", "description": "(§1) At the same time, these crop and weed species were also treated with postemergence applications of test chemicals formulated in the same manner. Plants ranged in height from 2 to 18 cm (1- to 4-leaf stage) for postemergence treatments. Plant species in the flood test consisted of rice (Oryza sativa), smallflower flatsedge (Cyperus difformis), duck salad (Heteranthera limosa) and bamyardgrass (Echinochloa crus-galli) grown to the 2-leaf stage for testing. Treated plants and controls were maintained in a greenhouse for twelve to sixteen days, after which all species were compared to controls and visually evaluated. Plant response ratings, summarized in Table B, are based on a scale of 0 to 10 where 0 is no effect and 10 is complete control. A dash (−) response means no test result."}, "bedstraw": {"tested_on": "bedstraw", "test": "Test B pre/postemergence bedstraw", "format": "in vivo, Galium aparine", "details": "for Bedstraw plant response rating: Rate 500 g/ha, scale of 0 to 10 where 0 is no effect and 10 is complete control", "outline": "(§2)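 Herbicidal effect was estimated by eye on a ten-point control scale after plants spent twelve to sixteen days in a greenhouse following soil or foliar treatment. Foliar sprays targeted plants at one to four leaves; all doses were formulated in a non-phytotoxic solvent with surfactant.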"}, "crabgrass": {"tested_on": "crabgrass", "test": "Test B pre/postemergence crabgrass", "format": "in vivo, Digitaria sanguinalis", "details": "for Crabgrass plant response rating: scale of 0 to 10 where 0 is no effect and 10 is complete control", "outline": "as §2"}, "velvetleaf": {"tested_on": "velvetleaf", "test": "Test B pre/postemergence velvetleaf", "format": "in vivo, Abutilon theophrasti", "details": "for Velvetleaf plant response rating: scale of 0 to 10 where 0 is no effect and 10 is complete control", "outline": "as §2"}, "blackgrass": {"tested_on": "blackgrass", "test": "Test B pre/postemergence blackgrass", "format": "in vivo, Alopecurus myosuroides", "details": "for Blackgrass plant response rating: scale of 0 to 10 where 0 is no effect and 10 is complete control", "outline": "as §2"}, "smallflower flatsedge": {"tested_on": "smallflower flatsedge", "test": "Test B flood test smallflower flatsedge", "format": "in vivo, Cyperus difformis", "description": "as §1"}, "surinam grass": {"tested_on": "surinam grass", "test": "Test B pre/postemergence surinam grass", "format": "in vivo, Brachiaria decumbens", "details": "for B. signalgrass plant response rating: scale of 0 to 10 where 0 is no effect and 10 is complete control", "outline": "as §2"}, "cocklebur": {"tested_on": "cocklebur", "test": "Test B pre/postemergence cocklebur", "format": "in vivo, Xanthium strumarium", "details": "for Cocklebur plant response rating: scale of 0 to 10 where 0 is no effect and 10 is complete control", "outline": "as §2"}, "giant foxtail": {"tested_on": "giant foxtail", "test": "Test B pre/postemergence giant foxtail", "format": "in vivo, Setaria faberii", "details": "for Giant foxtail plant response rating: scale of 0 to 10 where 0 is no effect and 10 is complete control", "outline": "as §2"}, "purple nutsedge": {"tested_on": "purple nutsedge", "test": "Test B pre/postemergence purple nutsedge", "format": "in vivo, Cyperus rotundus", "details": "for Nutsedge plant response rating: scale of 0 to 10 where 0 is no effect and 10 is complete control", "outline": "as §2"}, "[1]": {"details": "Postemergence, Rate 250 g/ha, scale 0 to 10, 0 is no effect, 10 is complete control"}, "[2]": {"details": "Postemergence, Rate 125 g/ha, scale 0 to 10, 0 is no effect, 10 is complete control"}, "[3]": {"details": "Preemergence, Rate 62 g/ha, scale 0 to 10 (0 no effect, 10 complete control)"}},
  "data": [
    {"smiles": "CCCCCCn1c(=O)on(C(=O)N(c2ccc(F)cc2)C(C)C)c1=O", "note": "[Compound 389]", "values": [
      {"measurement": "Ducksalad plant response rating", "setting": "duck salad; Rate 250 g/ha, flood-test species, scale 0 to 10, 0 is no effect, 10 is complete control", "result": 0},
      {"measurement": "Ducksalad plant response rating", "setting": "duck salad; Rate 500 g/ha, flood test species, scale 0 to 10 (0 no effect, 10 complete control)", "result": 3},
      {"measurement": "Plant response rating, Bedstraw", "setting": "bedstraw; [1]", "result": 5},
      {"measurement": "Bedstraw plant response rating", "setting": "bedstraw; Postemergence", "result": 7},
      {"measurement": "Bedstraw plant response rating", "setting": "bedstraw; Preemergence", "result": 10},
      {"measurement": "Plant response rating, Crabgrass", "setting": "crabgrass; [2]", "result": 3},
      {"measurement": "Plant response rating, Crabgrass", "setting": "crabgrass; [1]", "result": 4},
      {"measurement": "Crabgrass plant response rating", "setting": "crabgrass; Postemergence, Rate 500 g/ha", "result": 7},
      {"measurement": "Plant response rating, Crabgrass", "setting": "crabgrass; [3]", "result": 1},
      {"measurement": "Crabgrass plant response rating (0 to 10 scale)", "setting": "crabgrass; Preemergence, Rate 125 g/ha", "result": 2},
      {"measurement": "Crabgrass plant response rating", "setting": "crabgrass; Preemergence, Rate 250 g/ha", "result": 9},
      {"measurement": "Crabgrass plant response rating", "setting": "crabgrass; Preemergence, Rate 500 g/ha", "result": 10},
      {"measurement": "Crabgrass plant response rating", "setting": "crabgrass; Rate 62 g/ha, Postemergence", "result": 0},
      {"measurement": "Plant response rating, Velvetleaf", "setting": "velvetleaf; [1]", "result": 0},
      {"measurement": "Velvetleaf plant response rating", "setting": "velvetleaf; Postemergence, Rate 500 g/ha", "result": 0},
      {"measurement": "Plant response rating, Velvetleaf", "setting": "velvetleaf; [3]", "result": 0},
      {"measurement": "Velvetleaf plant response rating (0 to 10 scale)", "setting": "velvetleaf; Preemergence, Rate 125 g/ha", "result": 0},
      {"measurement": "Velvetleaf plant response rating", "setting": "velvetleaf; Preemergence, Rate 250 g/ha", "result": 0},
      {"measurement": "Velvetleaf plant response rating", "setting": "velvetleaf; Preemergence, Rate 500 g/ha", "result": 2},
      {"measurement": "Velvetleaf plant response rating", "setting": "velvetleaf; Rate 62 g/ha, Postemergence", "result": 0},
      {"measurement": "Plant response rating, Blackgrass", "setting": "blackgrass; [2]", "result": 0},
      {"measurement": "Plant response rating, Blackgrass", "setting": "blackgrass; [1]", "result": 6},
      {"measurement": "Blackgrass plant response rating", "setting": "blackgrass; Postemergence, Rate 500 g/ha", "result": 6},
      {"measurement": "Plant response rating, Blackgrass", "setting": "blackgrass; [3]", "result": 0},
      {"measurement": "Blackgrass plant response rating (0 to 10 scale)", "setting": "blackgrass; Preemergence, Rate 125 g/ha", "result": 2},
      {"measurement": "Blackgrass plant response rating", "setting": "blackgrass; Preemergence, Rate 250 g/ha", "result": 6},
      {"measurement": "Blackgrass plant response rating", "setting": "blackgrass; Preemergence, Rate 500 g/ha", "result": 9},
      {"measurement": "Blackgrass plant response rating", "setting": "blackgrass; Rate 62 g/ha, Postemergence", "result": 0},
      {"measurement": "Plant response rating, S. Flatsedge (0 to 10 scale, 0 is no effect, 10 is complete control)", "setting": "smallflower flatsedge; Rate 62 g/ha, flood test species, Pre-emergence, visual evaluation after twelve to sixteen days", "result": 0},
      {"measurement": "S. Flatsedge plant response rating (0 to 10 scale, 0 is no effect, 10 is complete control)", "setting": "smallflower flatsedge; Rate 125 g/ha, under heading Pre-emergence, flood test species, visual evaluation after twelve to sixteen days", "result": 0},
      {"measurement": "S. Flatsedge plant response rating", "setting": "smallflower flatsedge; Rate 250 g/ha, Pre-emergence, flood-test species, scale 0 to 10, 0 is no effect, 10 is complete control", "result": 0},
      {"measurement": "S. Flatsedge plant response rating", "setting": "smallflower flatsedge; Rate 500 g/ha, Pre-emergence, flood test species, scale 0 to 10 (0 no effect, 10 complete control)", "result": 0},
      {"measurement": "Plant response rating, B. signalgrass", "setting": "surinam grass; [2]", "result": 0},
      {"measurement": "Plant response rating, B. signalgrass", "setting": "surinam grass; [1]", "result": 0},
      {"measurement": "B. signalgrass plant response rating", "setting": "surinam grass; Postemergence, Rate 500 g/ha", "result": 0},
      {"measurement": "Plant response rating, B. signalgrass", "setting": "surinam grass; [3]", "result": 0},
      {"measurement": "B. signalgrass plant response rating (0 to 10 scale, 0 is no effect, 10 is complete control)", "setting": "surinam grass; Preemergence, Rate 125 g/ha", "result": 0},
      {"measurement": "B. signalgrass plant response rating", "setting": "surinam grass; Preemergence, Rate 250 g/ha", "result": 0},
      {"measurement": "B. signalgrass plant response rating", "setting": "surinam grass; Preemergence, Rate 500 g/ha", "result": 4},
      {"measurement": "B. signalgrass plant response rating", "setting": "surinam grass; Rate 62 g/ha, Postemergence", "result": 0},
      {"measurement": "Plant response rating, Cocklebur", "setting": "cocklebur; [2]", "result": 0},
      {"measurement": "Plant response rating, Cocklebur", "setting": "cocklebur; [1]", "result": 0},
      {"measurement": "Cocklebur plant response rating", "setting": "cocklebur; Postemergence, Rate 500 g/ha", "result": 0},
      {"measurement": "Plant response rating, Cocklebur", "setting": "cocklebur; [3]", "result": 0},
      {"measurement": "Cocklebur plant response rating (0 to 10 scale)", "setting": "cocklebur; Preemergence, Rate 125 g/ha", "result": 0},
      {"measurement": "Cocklebur plant response rating", "setting": "cocklebur; Preemergence, Rate 250 g/ha", "result": 0},
      {"measurement": "Cocklebur plant response rating", "setting": "cocklebur; Preemergence, Rate 500 g/ha", "result": 0},
      {"measurement": "Cocklebur plant response rating", "setting": "cocklebur; Rate 62 g/ha, Postemergence", "result": 0},
      {"measurement": "Plant response rating, Giant foxtail", "setting": "giant foxtail; [2]", "result": 2},
      {"measurement": "Plant response rating, Giant foxtail", "setting": "giant foxtail; [1]", "result": 7},
      {"measurement": "Giant foxtail plant response rating", "setting": "giant foxtail; Postemergence, Rate 500 g/ha", "result": 8},
      {"measurement": "Plant response rating, Giant foxtail", "setting": "giant foxtail; [3]", "result": 2},
      {"measurement": "Giant foxtail plant response rating (0 to 10 scale)", "setting": "giant foxtail; Preemergence, Rate 125 g/ha", "result": 8},
      {"measurement": "Giant foxtail plant response rating", "setting": "giant foxtail; Preemergence, Rate 250 g/ha", "result": 10},
      {"measurement": "Giant foxtail plant response rating", "setting": "giant foxtail; Preemergence, Rate 500 g/ha", "result": 10},
      {"measurement": "Giant foxtail plant response rating", "setting": "giant foxtail; Rate 62 g/ha, Postemergence", "result": 0},
      {"measurement": "Plant response rating, Nutsedge", "setting": "purple nutsedge; [1]", "result": 0},
      {"measurement": "Nutsedge plant response rating", "setting": "purple nutsedge; Postemergence, Rate 500 g/ha", "result": 0},
      {"measurement": "Plant response rating, Nutsedge", "setting": "purple nutsedge; [3]", "result": 0},
      {"measurement": "Nutsedge plant response rating (0 to 10 scale)", "setting": "purple nutsedge; Preemergence, Rate 125 g/ha", "result": 0},
      {"measurement": "Nutsedge plant response rating", "setting": "purple nutsedge; Preemergence, Rate 250 g/ha", "result": 0},
      {"measurement": "Nutsedge plant response rating", "setting": "purple nutsedge; Preemergence, Rate 500 g/ha", "result": 0},
      {"measurement": "Nutsedge plant response rating", "setting": "purple nutsedge; Rate 62 g/ha, Postemergence", "result": 0}
    ]}
  ]
}
